In this assay the target is T1, Signal peptide peptidase-like 2A (Homo sapiens, UniProt Q8TCT8).
T1 sequence (Q8TCT8 whole entry): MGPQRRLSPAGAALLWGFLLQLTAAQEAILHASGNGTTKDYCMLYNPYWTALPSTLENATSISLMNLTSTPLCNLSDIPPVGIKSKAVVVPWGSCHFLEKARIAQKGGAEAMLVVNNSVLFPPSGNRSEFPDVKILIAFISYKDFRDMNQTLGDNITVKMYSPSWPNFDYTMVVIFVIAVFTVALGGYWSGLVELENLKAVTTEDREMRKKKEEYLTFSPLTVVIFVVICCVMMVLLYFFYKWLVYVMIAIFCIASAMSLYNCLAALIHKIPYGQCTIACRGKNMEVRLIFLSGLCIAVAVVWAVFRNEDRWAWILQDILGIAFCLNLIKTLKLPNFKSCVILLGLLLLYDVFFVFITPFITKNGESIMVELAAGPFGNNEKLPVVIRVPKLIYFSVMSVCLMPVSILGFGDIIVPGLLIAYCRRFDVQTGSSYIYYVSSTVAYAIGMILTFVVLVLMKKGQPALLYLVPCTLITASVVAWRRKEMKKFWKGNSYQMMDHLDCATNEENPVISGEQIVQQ
The assay is described as follows: Inhibition of human SPPL2A expressed in human U2OS cells assessed as nuclear mask transferring to EGFP channel using EGFP-labeled TNFalpha (aa1-76) NTF as substrate and measured after 24 hrs by Hoechst staining based translocation assay. Type of assay: cell-based.

Broadly, the IC50 is the concentration at which inhibition is half-maximal. As to `CC(C)C(=O)Nc1nc(Cl)c(NC(=O)C[C@@H](C)C(=O)N[C@@H]2C(=O)N3CCCN3Cc3ccccc32)s1`, the IC50 amounted to 1 nM.

(Values after ChEMBL document CHEMBL5131552, “Diazepinone Compounds as Sppl2a Inhibitors for Treating Autoimmune Diseases and Lymphomas” (ACS Med Chem Lett, 2022).)
